Values of other authors, collected in patent US9090606B2, “Compounds” (CHIESI FARMACEUTICI S.p.A., priority 2012, dated 2015).

Columns and labels:
[1] = tested on: smoking model of COPD in mice
[2] = tested on: COPD patients
[3] = patients with severe disease, frequent exacerbations and mucus hypersecretion

Question: For `O=C(Nc1c(Cl)cncc1Cl)c1ccc(OC(F)F)c(OCC2CC2)c1` [roflumilast], which “effect on lung inflammation and emphysema” value [1] is on record?
Answer: inhibits lung inflammation and emphysema

Question: And the “reduction of the numbers of neutrophils in sputum” value ([2]; COPD patients, oral, given over 4 weeks)?
Answer: 36%

Question: And the “improvement of FEV 1” value [2, 3]?
Answer: approximately 50 mL

Question: What about the reduction of exacerbation [2, 3] of the same compound?
Answer: about 15%
